Reference: ChEMBL document CHEMBL1201862, “PubChem BioAssay data set” (2004)
Calls of active or inactive are those of the source.

How the values were obtained:
[1] = molecular target: Complement C1s subcomponent (Homo sapiens, UniProt P09871); assay: Complement C1s ELISA. [Related pubchem assays: 538, 787 ]; type: functional
[2] = molecular target: T1, Kappa-type opioid receptor (Homo sapiens, UniProt P41145); type: functional
cells [3] = type: functional, cell-based
[4] = molecular target: T1, Kappa-type opioid receptor; type: functional; remark: listed apart in the source
Nonstructural protein 1 = Nonstructural protein 1 (Influenza A virus, UniProt Q194T2); type: functional, Influenza A virus (A/California/07/2009(H1N1))
Beta-galactosidase = Beta-galactosidase (Escherichia coli, UniProt Q8VNN2); type: functional
[5] = Luminescence Cell-Based Dose Retest to Confirm Inhibitors of Cancer Stem Cells. [Related pubchem assays (depositor defined):AID2717, AID2721]; type: functional; conditions: Homo sapiens
cells [6] = type: functional, cell-based; remark: listed apart in the source
[7] = molecular target: E3 ubiquitin-protein ligase Mdm2 (Homo sapiens, UniProt Q00987); assay: MDM2-luc reporter signal enhancers, multi-concentration potency testing, MDM2 ubiquitin-protein ligase inhibitor program, whole-cell format, luminescence detection, 384-well microplate (AID 1394); type: functional;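 note: MDM2 E3 inhibitors raise luminescence so EC50 is for signal enhancement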
[8] = M. tuberculosis growth inhibition, HTS (AID 449762); type: functional
[9] = molecular target: Disintegrin and metalloproteinase domain-containing protein 17 (Homo sapiens, UniProt P78536); assay: inhibition of ADAM17 substrate cleavage – biochemical, quenched FRET substrate, counter-screen for ADAM10 exosite inhibitor project, dose response (AID 743253)
[10] = potency of ADAM10 substrate cleavage blockers – biochemical, QFRET, dose response (AID 743254);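 note: ADAM10 enzyme with the DM2 quenched FRET peptide as substrate; EDANS fluorescence gain as the protease cuts the substrate; inhibitor potency against ADAM10 proteolytic activity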
[11] = molecular target: RNA-editing ligase 1, mitochondrial (Trypanosoma brucei brucei, UniProt P86926); assay: inhibition of trypanosome RNA editing ligase – biochemical, fluorescence, Trypanosoma brucei, dose response (AID 1117295); type: functional
[12] = HIV-1 Vif–A3G interaction blockers – biochemical, TR-FRET, GST-Vif 1-94, biotin-A3G peptide, dose response retest, primary screen (AID 1117319); type: functional;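 note: TR-FRET signal of purified GST-Vif binding a biotinylated A3G peptide; inhibitors lower the FRET signal by blocking Vif and A3G binding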
[13] = viability loss in HepG2 liver cells – cell-based, ATP luminescence, cherry-pick, set 6, cytotoxicity control, dose response (AID 1053125); type: functional
cells [14] = conditions: A549
Genome polyprotein = Genome polyprotein (Hepatitis C virus, UniProt Q2Q167); assay: disruption of hepatitis C core self-association – biochemical, TR-FRET, dose response (AID 2159); parameters: species or system Hepacivirus hominis;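 note: blocks dimerization of HCV core protein measured by TR-FRET between tagged core106 pairs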
Estrogen receptor = Estrogen receptor (Homo sapiens, UniProt P03372);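 note: potency for inhibiting coactivator peptide recruitment to the receptor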
[15] = viability of uninfected HEp-2 cells – cell-based, HTS, cytotoxicity control for RSV inhibitor project, dose response (AID 2410); type: functional; conditions: human respiratory syncytial virus
[16] = molecular target: Diphosphomevalonate decarboxylase (Streptococcus pneumoniae serotype 2 (strain D39 / NCTC 7466), UniProt Q9FD53); assay: diphosphomevalonate decarboxylase inhibitor confirmation – biochemical, cuvette format, coupled NADH fluorescence (AID 1028); type: functional
Caspase-6 = molecular target: T2, Caspase-6 (Homo sapiens, UniProt P55212); assay: inhibition of CASP6 peptide cleavage – biochemical, VEID-R110 fluorescence, cherry-pick, dose response (AID 720632)
T2 sequence (P55212 whole entry): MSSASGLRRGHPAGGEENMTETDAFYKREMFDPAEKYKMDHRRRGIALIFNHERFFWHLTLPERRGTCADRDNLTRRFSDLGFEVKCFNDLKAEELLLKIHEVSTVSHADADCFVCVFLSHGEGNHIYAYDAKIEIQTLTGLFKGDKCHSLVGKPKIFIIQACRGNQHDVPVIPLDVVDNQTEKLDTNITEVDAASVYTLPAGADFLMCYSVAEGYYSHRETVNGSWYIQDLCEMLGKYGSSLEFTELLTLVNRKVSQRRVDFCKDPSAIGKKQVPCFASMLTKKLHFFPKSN

Caspase-8 = Caspase-8 (Homo sapiens, UniProt Q14790); assay: inhibitors of purified CASP8 protease – biochemical, Z-IETD-R110 fluorescence, cherry-picked samples, selectivity assay for caspase-6 inhibitor project, dose response (AID 743294)
[17] = molecular target: Induced myeloid leukemia cell differentiation protein Mcl-1 (Homo sapiens, UniProt Q07820); assay: blockers of MCL1 binding to BIM peptide – biochemical, fluorescence polarization, BIM-BH3 peptide, 1536-well, dose response (AID 2217)
Bcl-2-like protein 1 = Bcl-2-like protein 1 (Homo sapiens, UniProt Q07817); assay: blockers of BCLXL peptide binding – biochemical, fluorescence polarization, 1536-well, selectivity assay for MCL1 inhibitor project, dose response (AID 2218)
Caspase-7 = Caspase-7 (Homo sapiens, UniProt P55210); assay: caspase-7 enzyme inhibition, selectivity check – biochemical, DEVD-R110 fluorescence, cherry-pick, selectivity assay for caspase-6 inhibitor project, dose response (AID 743295); type: functional
[18] = molecular target: T3, Methionyl-tRNA synthetase, putative (Trypanosoma brucei brucei, UniProt Q38C91); type: functional, Trypanosoma brucei brucei strain 927/4 GUTat10.1
T3 sequence (Q38C91 whole entry): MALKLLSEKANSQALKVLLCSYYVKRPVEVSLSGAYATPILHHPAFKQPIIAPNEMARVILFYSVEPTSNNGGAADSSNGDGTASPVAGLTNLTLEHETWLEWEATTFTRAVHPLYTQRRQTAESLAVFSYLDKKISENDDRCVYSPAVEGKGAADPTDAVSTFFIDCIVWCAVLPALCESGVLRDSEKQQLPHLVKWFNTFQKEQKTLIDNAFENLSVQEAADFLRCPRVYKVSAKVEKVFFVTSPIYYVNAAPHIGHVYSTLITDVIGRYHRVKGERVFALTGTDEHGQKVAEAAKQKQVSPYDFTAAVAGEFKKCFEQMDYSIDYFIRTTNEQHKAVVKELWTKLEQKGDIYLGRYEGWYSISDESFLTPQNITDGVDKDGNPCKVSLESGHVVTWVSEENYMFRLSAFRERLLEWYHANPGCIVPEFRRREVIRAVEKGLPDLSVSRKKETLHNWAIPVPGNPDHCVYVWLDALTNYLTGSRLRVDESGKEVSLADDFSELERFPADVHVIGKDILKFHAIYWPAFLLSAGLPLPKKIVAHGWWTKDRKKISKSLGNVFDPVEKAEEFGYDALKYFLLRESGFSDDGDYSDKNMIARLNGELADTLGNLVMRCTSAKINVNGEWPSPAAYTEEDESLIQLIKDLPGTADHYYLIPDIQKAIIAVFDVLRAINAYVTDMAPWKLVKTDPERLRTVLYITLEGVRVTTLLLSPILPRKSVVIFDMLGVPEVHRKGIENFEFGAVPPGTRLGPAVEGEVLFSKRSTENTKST

[19] = Late stage counterscreen for inhibitors of Trypanosoma brucei methionyl tRNA synthetase (MetRS): Luminescence-based cell-based high throughput dose response assay to identify compounds that are cytotoxic to Jurkat human T lymphocyte cells.; type: functional
[20] = molecular target: T3, Methionyl-tRNA synthetase, putative; type: functional, Trypanosoma brucei brucei strain 927/4 GUTat10.1; remark: listed apart in the source
[21] = Counterscreen for inhibitors of Trypanosoma brucei methionyl tRNA synthetase (MetRS): Luminescence-based cell-based high throughput dose response assay to identify compounds that are cytotoxic to Jurkat human T lymphocyte cells.; type: functional
[22] = glucagon-like peptide-1 release potency in STC-1, concentration-response, half-maximal inhibitory concentration in the STC-1 line (AID 1117345); type: functional, cell-based
[23] = Potency on glucagon-like peptide 1 release, dose-response in NCI-H716 cell line, half maximal inhibitory concentration (AID 1117344); type: functional, cell-based
[24] = A Cell-Based Confirmatory Screen for Compounds that Inhibit VEEV, TC-83 (5).; type: functional
[25] = A Cell-Based Confirmatory Screen for Compounds that Inhibit VEEV TC-83 (4).; type: functional
[26] = suppression of HIF-dependent reporter luminescence – cell-based, dry powder samples, 2158-07, ARNT-TACC3 inhibitor project, dose response (AID 720561); type: functional
[27] = Late-stage results from the probe development effort to identify antagonists of arginine vasopressin receptor 1a (AVPR1a): fluorescence-based cell-based dose response OXTR inhibition counterscreen assay.; type: functional
Vasopressin V2 receptor = Vasopressin V2 receptor (Homo sapiens, UniProt P30518); assay: Late-stage results from the probe development effort to identify antagonists of arginine vasopressin receptor 1a (AVPR1a): fluorescence-based cell-based dose response AVPR2 inhibition counterscreen assay.; type: functional
Vasopressin V1b receptor = Vasopressin V1b receptor (Homo sapiens, UniProt P47901); assay: Late-stage results from the probe development effort to identify antagonists of arginine vasopressin receptor 1a (AVPR1a): fluorescence-based cell-based dose response AVPR1b inhibition counterscreen assay.; type: functional
[28] = Late-stage results from the probe development effort to identify antagonists of arginine vasopressin receptor 1a (AVPR1a): fluorescence-based cell-based dose response AVPR1a inhibition assay.; type: functional
[29] = cytotoxicity in MITF-independent A375 cells – cell-based, CellTiter-Glo luminescence, dry powder, set 4, counter-screen for MITF inhibitor project, dose response (AID 624364); type: functional; conditions: A-375;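 note: A375 melanoma cells are MITF independent so this is a counter screen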
[30] = viability loss in MITF-independent A375 cells – cell-based, CellTiter-Glo luminescence, dry powder, set 2, counter-screen for MITF inhibitor project, dose response (AID 624489); type: functional; conditions: A-375;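 note: actives are compounds lowering A375 viability meaning general cytotoxicity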
[31] = toxicity toward HepG2 hepatoma cells – cell-based, dry powder samples, cytotoxicity control, dose response (AID 720568); type: functional
[32] = molecular target: T4, Low molecular weight phosphotyrosine protein phosphatase (Homo sapiens, UniProt P24666); assay: inhibition of LMPTP-A enzymatic activity – biochemical, OMFP substrate, fluorescence intensity, set 2, dose response (AID 743307); type: functional
T4 sequence (P24666 whole entry): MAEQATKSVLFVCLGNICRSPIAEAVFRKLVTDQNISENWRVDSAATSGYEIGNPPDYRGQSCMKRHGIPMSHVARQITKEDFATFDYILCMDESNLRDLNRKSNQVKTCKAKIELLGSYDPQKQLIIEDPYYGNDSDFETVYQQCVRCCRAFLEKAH

[33] = molecular target: T4, Low molecular weight phosphotyrosine protein phosphatase; assay: inhibition of human LMPTP enzyme activity – biochemical, absorbance, pNPP substrate, LMPTP-A isoform, set 2, orthogonal assay, dose response (AID 743308); type: functional
SN12K1 = assay: cells; type: functional; conditions: Homo sapiens
[34] = rise of 2N DNA cells, HeLa – IC50, dose response (AID 1117349); type: functional, cell-based
P388 = assay: cells; type: functional; conditions: Mus musculus
P388/ADR = assay: cells; type: functional; conditions: Mus musculus
[35] = SNU-C1 cell viability reduction, dose response, CellTiter-Glo luminescence (AID 1117323); type: functional, cell-based
[36] = rise of 4N DNA cells, HeLa – IC50, dose response (AID 1117351); type: functional, cell-based

T1 sequence (P41145 whole entry): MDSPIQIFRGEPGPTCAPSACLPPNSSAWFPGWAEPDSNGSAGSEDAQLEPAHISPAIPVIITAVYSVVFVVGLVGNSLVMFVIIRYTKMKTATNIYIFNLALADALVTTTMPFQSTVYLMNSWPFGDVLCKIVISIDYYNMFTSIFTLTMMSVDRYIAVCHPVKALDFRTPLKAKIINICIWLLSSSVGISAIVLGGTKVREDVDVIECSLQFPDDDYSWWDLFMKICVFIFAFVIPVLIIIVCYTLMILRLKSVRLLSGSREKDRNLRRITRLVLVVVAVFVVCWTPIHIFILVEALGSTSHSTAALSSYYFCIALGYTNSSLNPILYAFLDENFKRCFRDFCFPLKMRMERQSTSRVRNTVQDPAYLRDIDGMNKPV
Chain of Estrogen receptor (P03372 whole entry): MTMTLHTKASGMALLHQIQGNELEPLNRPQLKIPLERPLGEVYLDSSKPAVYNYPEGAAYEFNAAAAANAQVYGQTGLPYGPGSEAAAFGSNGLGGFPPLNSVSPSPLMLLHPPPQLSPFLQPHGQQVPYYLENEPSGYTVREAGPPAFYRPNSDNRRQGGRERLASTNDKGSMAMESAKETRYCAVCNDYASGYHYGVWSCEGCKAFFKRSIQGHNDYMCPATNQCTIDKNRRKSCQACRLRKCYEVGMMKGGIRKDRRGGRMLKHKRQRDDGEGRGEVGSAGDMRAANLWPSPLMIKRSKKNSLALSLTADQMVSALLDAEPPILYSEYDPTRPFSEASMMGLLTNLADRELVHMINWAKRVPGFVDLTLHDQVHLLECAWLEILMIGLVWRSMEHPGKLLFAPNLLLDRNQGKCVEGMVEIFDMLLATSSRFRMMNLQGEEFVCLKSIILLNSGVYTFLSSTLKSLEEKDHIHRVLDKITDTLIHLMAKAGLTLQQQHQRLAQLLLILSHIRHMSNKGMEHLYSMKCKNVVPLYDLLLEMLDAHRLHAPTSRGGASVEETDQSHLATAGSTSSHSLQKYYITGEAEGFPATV
Chain of Vasopressin V2 receptor (P30518 whole entry): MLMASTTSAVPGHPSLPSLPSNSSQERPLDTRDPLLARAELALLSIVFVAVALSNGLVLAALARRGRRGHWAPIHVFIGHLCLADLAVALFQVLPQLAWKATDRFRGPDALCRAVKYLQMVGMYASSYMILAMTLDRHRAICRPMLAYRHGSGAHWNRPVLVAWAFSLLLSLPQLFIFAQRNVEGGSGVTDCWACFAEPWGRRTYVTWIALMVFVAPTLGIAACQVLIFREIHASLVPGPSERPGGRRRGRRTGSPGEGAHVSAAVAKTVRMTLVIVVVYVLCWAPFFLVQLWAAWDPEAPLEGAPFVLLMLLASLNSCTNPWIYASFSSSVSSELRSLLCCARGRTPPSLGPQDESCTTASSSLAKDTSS
Chain of E3 ubiquitin-protein ligase Mdm2 (Q00987 whole entry): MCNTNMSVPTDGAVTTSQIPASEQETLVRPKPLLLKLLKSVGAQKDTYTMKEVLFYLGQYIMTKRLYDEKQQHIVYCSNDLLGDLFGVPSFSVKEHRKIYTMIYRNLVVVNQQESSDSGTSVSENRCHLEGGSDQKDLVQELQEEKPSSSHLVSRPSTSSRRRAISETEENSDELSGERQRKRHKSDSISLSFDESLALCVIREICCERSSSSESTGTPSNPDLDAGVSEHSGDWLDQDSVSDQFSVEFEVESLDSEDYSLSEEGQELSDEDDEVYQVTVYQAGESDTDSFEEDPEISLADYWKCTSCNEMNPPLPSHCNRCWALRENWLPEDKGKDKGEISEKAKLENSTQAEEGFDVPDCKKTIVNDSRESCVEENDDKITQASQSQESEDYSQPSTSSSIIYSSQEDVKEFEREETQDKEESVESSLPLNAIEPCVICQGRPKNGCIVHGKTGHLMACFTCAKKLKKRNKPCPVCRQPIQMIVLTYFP
Chain of Disintegrin and metalloproteinase domain-containing protein 17 (P78536 whole entry, the tested form may be a part): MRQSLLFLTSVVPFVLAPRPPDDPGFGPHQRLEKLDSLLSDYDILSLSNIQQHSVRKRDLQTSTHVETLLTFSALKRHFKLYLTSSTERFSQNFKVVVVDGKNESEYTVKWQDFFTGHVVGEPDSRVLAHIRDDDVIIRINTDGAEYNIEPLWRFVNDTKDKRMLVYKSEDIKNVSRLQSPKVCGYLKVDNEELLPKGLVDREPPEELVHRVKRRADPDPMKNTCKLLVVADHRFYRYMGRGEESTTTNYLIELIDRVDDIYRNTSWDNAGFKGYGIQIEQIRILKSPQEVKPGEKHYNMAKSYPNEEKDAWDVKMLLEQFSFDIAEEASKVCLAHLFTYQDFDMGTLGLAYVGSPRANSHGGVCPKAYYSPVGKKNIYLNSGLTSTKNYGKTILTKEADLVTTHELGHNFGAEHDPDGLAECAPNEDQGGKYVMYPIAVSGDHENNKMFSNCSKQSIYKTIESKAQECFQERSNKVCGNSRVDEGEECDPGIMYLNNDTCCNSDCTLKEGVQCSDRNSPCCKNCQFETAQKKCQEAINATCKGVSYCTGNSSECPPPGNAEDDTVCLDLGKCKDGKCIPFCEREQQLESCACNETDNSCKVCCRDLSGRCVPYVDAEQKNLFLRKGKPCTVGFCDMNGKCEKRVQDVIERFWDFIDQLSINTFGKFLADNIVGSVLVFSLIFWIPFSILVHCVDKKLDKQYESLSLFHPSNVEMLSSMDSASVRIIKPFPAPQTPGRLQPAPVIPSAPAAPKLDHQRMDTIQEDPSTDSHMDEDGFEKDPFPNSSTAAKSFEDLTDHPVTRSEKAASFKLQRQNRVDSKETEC
Chain of Complement C1s subcomponent (P09871 16-437 limits assumed): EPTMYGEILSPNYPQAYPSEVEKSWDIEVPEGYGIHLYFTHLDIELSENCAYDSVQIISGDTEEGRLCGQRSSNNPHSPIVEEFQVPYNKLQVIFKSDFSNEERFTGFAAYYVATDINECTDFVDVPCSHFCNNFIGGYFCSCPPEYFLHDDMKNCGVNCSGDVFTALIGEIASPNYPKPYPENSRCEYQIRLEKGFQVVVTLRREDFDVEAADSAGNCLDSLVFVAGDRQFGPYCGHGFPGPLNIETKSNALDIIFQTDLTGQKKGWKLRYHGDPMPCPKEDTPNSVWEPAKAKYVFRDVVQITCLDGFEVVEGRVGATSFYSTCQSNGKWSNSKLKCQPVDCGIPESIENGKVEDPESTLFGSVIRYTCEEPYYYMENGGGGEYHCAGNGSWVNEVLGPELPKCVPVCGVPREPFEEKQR
Chain of Complement C1s subcomponent (P09871 438-688 limits assumed): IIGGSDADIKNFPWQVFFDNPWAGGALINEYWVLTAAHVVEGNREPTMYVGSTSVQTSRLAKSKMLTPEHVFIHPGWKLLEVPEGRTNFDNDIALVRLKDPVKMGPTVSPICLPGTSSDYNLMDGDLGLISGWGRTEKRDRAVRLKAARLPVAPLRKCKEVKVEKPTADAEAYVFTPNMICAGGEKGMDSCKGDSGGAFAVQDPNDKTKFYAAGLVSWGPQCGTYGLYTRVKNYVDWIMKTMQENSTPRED
Chain of Bcl-2-like protein 1 (Q07817 whole entry): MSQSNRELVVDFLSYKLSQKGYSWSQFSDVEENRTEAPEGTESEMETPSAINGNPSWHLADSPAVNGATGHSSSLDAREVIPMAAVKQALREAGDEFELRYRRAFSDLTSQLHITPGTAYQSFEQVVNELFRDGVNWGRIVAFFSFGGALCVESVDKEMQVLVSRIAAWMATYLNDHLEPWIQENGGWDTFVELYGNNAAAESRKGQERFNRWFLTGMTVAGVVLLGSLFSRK
Chain of RNA-editing ligase 1, mitochondrial (P86926 whole entry): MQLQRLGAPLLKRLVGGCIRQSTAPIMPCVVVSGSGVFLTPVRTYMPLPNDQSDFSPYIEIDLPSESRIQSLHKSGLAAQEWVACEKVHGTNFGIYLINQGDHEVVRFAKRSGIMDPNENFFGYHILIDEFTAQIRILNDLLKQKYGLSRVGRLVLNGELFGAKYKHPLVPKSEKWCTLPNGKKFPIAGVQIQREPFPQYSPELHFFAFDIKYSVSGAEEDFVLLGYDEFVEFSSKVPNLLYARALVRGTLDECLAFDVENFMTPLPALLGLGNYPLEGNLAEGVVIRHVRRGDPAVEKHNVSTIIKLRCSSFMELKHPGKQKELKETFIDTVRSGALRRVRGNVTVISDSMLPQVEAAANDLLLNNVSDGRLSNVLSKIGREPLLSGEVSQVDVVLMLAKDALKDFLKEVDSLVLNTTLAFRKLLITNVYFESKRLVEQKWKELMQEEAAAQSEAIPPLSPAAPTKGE
Chain of Caspase-7 (P55210 24-198 limits assumed): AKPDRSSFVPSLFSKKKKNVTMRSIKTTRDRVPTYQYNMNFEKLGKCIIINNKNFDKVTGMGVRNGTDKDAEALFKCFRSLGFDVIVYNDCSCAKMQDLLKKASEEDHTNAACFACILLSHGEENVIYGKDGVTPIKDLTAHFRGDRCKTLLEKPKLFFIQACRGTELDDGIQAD
Chain of Caspase-7 (P55210 207-303 limits assumed): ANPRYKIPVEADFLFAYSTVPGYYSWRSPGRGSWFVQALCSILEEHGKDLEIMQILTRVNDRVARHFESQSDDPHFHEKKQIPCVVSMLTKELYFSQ
Chain of Caspase-8 (Q14790 217-374 limits assumed): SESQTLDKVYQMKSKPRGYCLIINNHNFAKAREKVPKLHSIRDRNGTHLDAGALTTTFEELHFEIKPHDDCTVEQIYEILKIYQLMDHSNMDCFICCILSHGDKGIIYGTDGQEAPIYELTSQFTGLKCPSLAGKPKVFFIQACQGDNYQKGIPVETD
Chain of Caspase-8 (Q14790 385-479 limits assumed): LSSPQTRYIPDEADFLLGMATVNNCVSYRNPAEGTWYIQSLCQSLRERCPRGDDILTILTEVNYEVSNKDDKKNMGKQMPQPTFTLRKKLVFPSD
Chain of Diphosphomevalonate decarboxylase (Q9FD53 whole entry): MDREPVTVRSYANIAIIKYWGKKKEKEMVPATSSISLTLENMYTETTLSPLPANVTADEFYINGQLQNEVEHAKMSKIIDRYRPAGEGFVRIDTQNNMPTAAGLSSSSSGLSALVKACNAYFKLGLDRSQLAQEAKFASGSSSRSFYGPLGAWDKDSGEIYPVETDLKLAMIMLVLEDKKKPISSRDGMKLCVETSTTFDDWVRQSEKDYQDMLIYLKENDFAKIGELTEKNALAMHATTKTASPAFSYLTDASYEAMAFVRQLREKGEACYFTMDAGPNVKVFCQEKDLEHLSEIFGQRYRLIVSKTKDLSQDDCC

O=c1c(-c2ccco2)[n+]([O-])c2ccccc2n1OCc1ccccn1
IC50 [1]: > 50 µM (not active)

O=C(CSC1=NNC(c2ccccn2)S1)Nc1ccc(C(F)(F)F)cc1 (stereo not given)
IC50 [2]: > 32 µM
EC50 (cells [3]): 15.6 µM (active)
IC50 [4]: > 31.5 µM (inactive)
IC50 (Nonstructural protein 1): 7.8 µM (active)
EC50 (Beta-galactosidase): > 31.5 µM (inactive)
AC50 [5]: 3.51 µM (active)
EC50 (cells [6]): > 350 µM (not active)
EC50 [7]: 43.2 µM (not active)

CC1(c2ccc(Cl)c(Cl)c2)N=C(S)N2C1N=C(S)N2c1ccccc1 (stereo not given)
IC50 [8]: > 100 µM (active)

Cc1cc(C)cc(NS(=O)(=O)c2ccc(Oc3ncc(C(F)(F)F)cc3Cl)cc2)c1
IC50 [9]: > 69.5 µM (inactive)
IC50 [10]: 12 µM (inactive)
AC50 [5]: 2.09 µM (active)

Clc1ccc(CN=C(Nc2ccccc2)NC2CCCCC2)cc1
IC50 [11]: > 96.6 µM (inactive)

Cc1noc(C)c1C(=O)N1CCc2ccccc2C1
IC50 [12]: > 100 µM (active)

O=C(NNc1c2ccccc2nc2ccccc12)c1ccc(O)cc1
AC50 [13]: > 52 µM (inactive)
AC50 (cells [14]): > 52 µM (inactive)

CCn1c(SCC(=O)Nc2ccc3c(c2)c2ccccc2n3CC)nnc1-c1ccco1
IC50 (Genome polyprotein): > 49.8 µM (not active)
IC50 (Estrogen receptor): > 50 µM (not active)
CC50 [15]: 48.9 µM (active)

CCN(CC)C(=O)c1cccc(-n2sc3ccccc3c2=O)c1
IC50 [16]: 16.7 µM (active)

CCCCN(C(=O)c1cccc(-n2cccc2)c1)c1c(N)n(CCC)c(=O)[nH]c1=O
AC50 (Caspase-6): 1.93 µM (active)
AC50 (Caspase-8): > 70 µM (inactive)
IC50 [17]: > 12.1 µM (not active)
IC50 (Bcl-2-like protein 1): > 109 µM (not active)
AC50 (Caspase-7): 51.2 µM (active)

CN(Cc1cc(Cl)cc(Cl)c1)[C@H]1C[C@H]2c3[nH]c4ccccc4c3CCN2C(=O)[C@H]1CO
IC50 [18]: 1.64 µM (active)
IC50 [19]: 31.7 µM (inactive)
IC50 [20]: 1.33 µM (active)
IC50 [21]: 80.2 µM (inactive)

CCCCCCCC/C=C\CCCCCCCCN
IC50 [22]: > 40 µM (inactive)
IC50 [23]: 14.8 µM (inactive)

CCN1CCN(Cc2nc3ccc([N+](=O)[O-])cc3c(=O)n2-c2cccc(F)c2)CC1
IC50 [24]: 0.45 µM (active)
IC50 [25]: 0.31 µM (active)

Cc1nnc(NC(=O)c2ccc(S(=O)(=O)N3CCCCC3)cc2)o1
AC50 [26]: > 100 µM (inactive)

O=C(C1CCN(c2ccc(C(F)(F)F)cn2)CC1)N(CC1CC1)c1ccc(Cl)cc1
IC50 [27]: 12.6 µM (inactive)
IC50 (Vasopressin V2 receptor): 19.3 µM (inactive)
IC50 (Vasopressin V1b receptor): 31.7 µM (inactive)
IC50 [28]: 0.123 µM (active)

O=C1C(Nc2ccccc2)=C(N2CCN(c3ccccc3)CC2)C(=O)c2ccccc21
AC50 [29]: > 70 µM (inactive)
AC50 [30]: > 70 µM (inactive)

O=C1CCN(Cc2ccccc2)c2cc3ccccc3cc21
AC50 [31]: > 30 µM (inactive)

c1ccc(-c2nc(N3CCSCC3)c3ccccc3n2)cc1
IC50 [32]: > 80 µM (inactive)
IC50 [33]: > 80 µM (inactive)

CN(Cc1cnc2nc(N)nc(N)c2n1)c1ccc(C(=O)N[C@@H](CCC(=O)O)C(=O)O)cc1 [METHOTREXATE]
GI50 (SN12K1): 0.025 µM (active)
IC50 [34]: > 10 µM (inactive)
GI50 (P388): 0.025 µM (active)
GI50 (P388/ADR): 0.025 µM (active)
IC50 [35]: > 20 µM (inactive)
IC50 [36]: > 10 µM (inactive)
